Laboratory results published in US4753953A, “Pyridonecarboxylic acid derivatives and antibacterial pharmaceutical compositions thereof” (priority 1985, dated 1988).
Converted amounts (≈) assume the structure as drawn. Like-named read-outs stand apart in the source and are kept apart here.

Key:
[1] = tested on: Staphylococcus aureus 209 P; experiment: MIC, in vitro antibacterial activity (standard strains); type: cell-based; conditions: Staphylococcus aureus, 209P; 10^6 cells/ml; Gram +; read-out: MIC
S. aureus Smith = experiment: as above; type: cell-based, Staphylococcus aureus; conditions: Staphylococcus aureus; 10^6 cells/ml; Gram +; read-out: MIC
[2] = tested on: S. aureus IID 670 (Terajima); experiment: as above; type: cell-based, Staphylococcus aureus; conditions: Staphylococcus aureus, IID670; 10^6 cells/ml; Gram +; read-out: MIC
[3] = tested on: Streptococcus pyogenes (S-8); experiment: as above; type: cell-based; conditions: Streptococcus pyogenes; 10^6 cells/ml; Gram +; read-out: MIC
S. pyogenes IID 692 = experiment: as above; type: cell-based, Streptococcus pyogenes; conditions: Streptococcus pyogenes, IID692; 10^6 cells/ml; Gram +; read-out: MIC
S. pneumoniae IID 552 = experiment: as above; type: cell-based; conditions: Streptococcus pneumoniae, IID552; 10^6 cells/ml; Gram +; read-out: MIC
E. faecalis IID 682 = experiment: as above; type: cell-based; conditions: Enterococcus faecalis, IID682; 10^6 cells/ml; Gram +; read-out: MIC
E. coli ATCC 10536 = experiment: as above; type: cell-based, Escherichia coli; conditions: Escherichia coli, ATCC10536; 10^6 cells/ml; Gram -; read-out: MIC
E. coli ML 4707 = experiment: as above; type: cell-based, Escherichia coli; conditions: Escherichia coli, ML4707, 10^6 cells/ml; Gram -; Table 1; read-out: MIC
[4] = tested on: Morganella morganii IID 602; experiment: as above; type: cell-based; conditions: Morganella morganii, IID602; 10^6 cells/ml; Gram -; read-out: MIC
K. pneumoniae 1-220S = experiment: as above; type: cell-based, Klebsiella pneumoniae; conditions: Klebsiella pneumoniae, 1220S; 10^6 cells/ml; Gram -; read-out: MIC
[5] = tested on: Enterobacter cloacae IID 977; experiment: as above; type: cell-based; conditions: Enterobacter cloacae, IID977; 10^6 cells/ml; Gram -; read-out: MIC
[6] = tested on: Citrobacter freundii IID 976; experiment: as above; type: cell-based; conditions: Citrobacter freundii, IID976; 10^6 cells/ml; Gram -; read-out: MIC
[7] = tested on: Salmonella enteritidis IID 604; experiment: as above; type: cell-based; conditions: Salmonella enterica; 10^6 cells/ml; Gram -; read-out: MIC
P. aeruginosa IFO 12689 = experiment: as above; type: cell-based, Pseudomonas aeruginosa; conditions: Pseudomonas aeruginosa, IFO12689; 10^6 cells/ml; Gram -; read-out: MIC
P. aeruginosa IID 1210 = experiment: as above; type: cell-based, Pseudomonas aeruginosa; conditions: Pseudomonas aeruginosa, IID1210; 10^6 cells/ml; Gram -; read-out: MIC
P. cepacia GIFU 518 = experiment: as above; type: cell-based; conditions: Burkholderia cepacia, GIFU518
[8] = tested on: Yersinia enterocolitica IID 981; experiment: as above; type: cell-based; conditions: Yersinia enterocolitica, IID981
[9] = tested on: Alcaligenes faecalis 0114002; experiment: as above; type: cell-based; conditions: Alcaligenes faecalis, 0114002; 10^6 cells/ml; Gram -; read-out: MIC
B. fragilis 0558 = experiment: as above; type: cell-based, Bacteroides fragilis; conditions: Bacteroides fragilis, 0558; 10^6 cells/ml; Gram -; read-out: MIC
B. fragilis 25285 = experiment: as above; type: cell-based, Bacteroides fragilis; conditions: Bacteroides fragilis, 25285; 10^6 cells/ml; Gram -; read-out: MIC
B. distasonis 8503 = experiment: as above; type: cell-based; conditions: Parabacteroides distasonis, 8503; 10^6 cells/ml; Gram -; read-out: MIC
[10] = tested on: B. thetaiotaomicron (0661); experiment: as above; type: cell-based; conditions: Bacteroides thetaiotaomicron; 10^6 cells/ml; Gram -; read-out: MIC
[11] = tested on: Fusobacterium mortiferum 4249; experiment: as above; type: cell-based; conditions: Fusobacterium mortiferum, 4249; 10^6 cells/ml; Gram -; read-out: MIC
F. necrophorum S-45 = experiment: as above; type: cell-based; conditions: Fusobacterium necrophorum, S45; 10^6 cells/ml; Gram -; read-out: MIC
[12] = tested on: Eubacterium lentum GAI 5242; experiment: as above; type: cell-based; conditions: Eggerthella lenta, GAI5242; 10^6 cells/ml; Gram +; read-out: MIC
[13] = tested on: Peptococcus magnus KY 017; experiment: as above; type: cell-based; conditions: Finegoldia magna, KY017; 10^6 cells/ml; Gram +; read-out: MIC
[14] = tested on: Clostridium difficile I-E; experiment: as above; type: cell-based; conditions: Clostridioides difficile; 10^6 cells/ml; Gram +
C. perfringens KYA 13123 = experiment: microbe, parasite or virus in culture; type: cell-based; conditions: Clostridium perfringens, KYA13123
[15] = tested on: Peptostreptococcus anaerobius KYA 27337; experiment: MIC, in vitro antibacterial activity (standard strains); type: cell-based; conditions: Peptostreptococcus anaerobius, KYA27337; 10^6 cells/ml; Gram +; read-out: MIC
Pst. micros UPI 5464-1 = experiment: as above; type: cell-based; conditions: Parvimonas micra, UPI54641; 10^6 cells/ml; Gram +; read-out: MIC
[16] = tested on: Veillonella parvula KYA 10790; experiment: as above; type: cell-based; conditions: Veillonella parvula, KYA10790; 10^6 cells/ml; Gram -; read-out: MIC
[17] = 10^6 cells/ml, Gram -, read-out: MIC

SMILES | MIC [1] | MIC (S. aureus Smith) | MIC [2] | MIC [3] | MIC (S. pyogenes IID 692) | MIC (S. pneumoniae IID 552) | MIC (E. faecalis IID 682) | MIC (E. coli ATCC 10536) | MIC (E. coli ML 4707) | MIC [4] | MIC (K. pneumoniae 1-220S) | MIC [5] | MIC [6] | MIC [7] | MIC (P. aeruginosa IFO 12689) | MIC (P. aeruginosa IID 1210) | MIC [9] | MIC (B. fragilis 0558) | MIC (B. fragilis 25285) | MIC (B. distasonis 8503) | also measured
C[C@H]1CN(c2c(F)cc3c(=O)c(C(=O)O)cn(C4CC4)c3c2Br)C[C@H]1N (relative stereo) [Example 21, 7-(cis-3-Amino-4-methyl-1-pyrrolidinyl)-8-bromo-1-cyclopropyl-6-fluoro-1,4-dihydro-4-oxo-3-quinolinecarboxylic acid] | 0.025 µg/mL (≈ 0.0589 µM) | 0.025 µg/mL (≈ 0.0589 µM) | 0.05 µg/mL (≈ 0.118 µM) | 0.1 µg/mL (≈ 0.236 µM) | 0.2 µg/mL (≈ 0.471 µM) | 0.2 µg/mL (≈ 0.471 µM) | 0.2 µg/mL (≈ 0.471 µM) | 0.0125 µg/mL (≈ 0.0295 µM) | 0.0125 µg/mL (≈ 0.0295 µM) | 0.05 µg/mL (≈ 0.118 µM) | 0.05 µg/mL (≈ 0.118 µM) | 0.025 µg/mL (≈ 0.0589 µM) | 0.025 µg/mL (≈ 0.0589 µM) | 0.025 µg/mL (≈ 0.0589 µM) | 0.78 µg/mL (≈ 1.84 µM) | 1.56 µg/mL (≈ 3.68 µM) | 0.2 µg/mL (≈ 0.471 µM) | 0.05 µg/mL (≈ 0.118 µM) | 0.05 µg/mL (≈ 0.118 µM) | 0.39 µg/mL (≈ 0.919 µM) | MIC (P. cepacia GIFU 518; [17]): 0.39 µg/mL (≈ 0.919 µM); MIC [8]: 0.025 µg/mL (≈ 0.0589 µM); MIC [10]: 0.2 µg/mL (≈ 0.471 µM); MIC [11]: 0.2 µg/mL (≈ 0.471 µM); MIC (F. necrophorum S-45): 0.1 µg/mL (≈ 0.236 µM); MIC [12]: 0.05 µg/mL (≈ 0.118 µM); MIC [13]: 0.05 µg/mL (≈ 0.118 µM); MIC [14]: 0.39 µg/mL; MIC (C. perfringens KYA 13123): 0.1 µg/mL (≈ 0.236 µM); MIC [15]: 0.2 µg/mL (≈ 0.471 µM); MIC (Pst. micros UPI 5464-1): 0.1 µg/mL (≈ 0.236 µM); MIC [16]: 0.1 µg/mL (≈ 0.236 µM)
CCn1cc(C(=O)O)c(=O)c2cc(F)c(N3C[C@@H](N)[C@@H](C)C3)c(F)c21 (relative stereo) [Example 22, 7-(cis-3-Amino-4-methyl-1-pyrrolidinyl)-1-ethyl-6,8-difluoro-1,4-dihydro-4-oxo-3-quinolinecarboxylic acid] | 0.1 µg/mL (≈ 0.285 µM) | 0.2 µg/mL (≈ 0.569 µM) | 0.2 µg/mL (≈ 0.569 µM) | 0.78 µg/mL (≈ 2.22 µM) | 0.78 µg/mL (≈ 2.22 µM) | 0.78 µg/mL (≈ 2.22 µM) | 0.78 µg/mL (≈ 2.22 µM) | 0.05 µg/mL (≈ 0.142 µM) | 0.05 µg/mL (≈ 0.142 µM) | 0.2 µg/mL (≈ 0.569 µM) | 0.1 µg/mL (≈ 0.285 µM) | 0.1 µg/mL (≈ 0.285 µM) | 0.05 µg/mL (≈ 0.142 µM) | 0.1 µg/mL (≈ 0.285 µM) | 1.56 µg/mL (≈ 4.44 µM) | 6.25 µg/mL (≈ 17.8 µM) | 1.56 µg/mL (≈ 4.44 µM) | 1.56 µg/mL (≈ 4.44 µM) | 1.56 µg/mL (≈ 4.44 µM) | 3.13 µg/mL (≈ 8.91 µM) | MIC (P. cepacia GIFU 518): 0.78 µg/mL (≈ 2.22 µM); MIC [8, 17]: 0.1 µg/mL (≈ 0.285 µM); MIC [10]: 3.13 µg/mL (≈ 8.91 µM); MIC [11]: 1.56 µg/mL (≈ 4.44 µM); MIC (F. necrophorum S-45): 3.13 µg/mL (≈ 8.91 µM); MIC [12]: 1.56 µg/mL (≈ 4.44 µM); MIC [13]: 1.56 µg/mL (≈ 4.44 µM); MIC [14]: 6.25 µg/mL; MIC (C. perfringens KYA 13123): 0.78 µg/mL (≈ 2.22 µM); MIC [15]: 3.13 µg/mL (≈ 8.91 µM); MIC (Pst. micros UPI 5464-1): 0.78 µg/mL (≈ 2.22 µM); MIC [16]: 0.78 µg/mL (≈ 2.22 µM)
